Biological target: His-tagged recombinant human Gal-3 (hGal-3) (Homo sapiens, UniProt P17931)
Experiment: Gal-3 HTRF assay (hGal-3 / B-ASF binding inhibition)
Settings: Examples 26 to 29 and 66 to 68; HTRF, 15 nM hGal-3, 15 nM B-ASF
Experimental: ASSAY BUFFER Composition: 25 mM HEPES, 100 mM NaCl, 0.005% Tween 20, 0.05% BSA prepared in sterile water (all reagents from Sigma).
Positive Control: 100% DMSO (1 μL)+His-tagged hGal-3 (20 μL)+β-ASF (20 μL)+Anti-His Terbium Antibody (5 μL)+Strep d2 Antibody (5 μL).
Negative Control: 100% DMSO (1 μL)+His-tagged hGal-3 (20 μL)+Anti His Terbium Antibody (5 μL)+Strep d2 Aantibody (5 μL).
PROTOCOL: The Gal-3 assays were performed in 384 white Opti plates in three replicates at room temperature with gentle shaking at 250-300 rpm From the original stocks, […] working stock concentrations of His-tagged recombinant human Gal-3 (hGal-3) and that of B-ASF were prepared. From the working stock, 20 μL of hGal-3 (15 nM) and 20 μL B-ASF (15 nM) were added to the plates. In Negative Control, only hGal-3 was added. A concentration range of 50× working stocks were prepared for the compounds in 100% DMSO. Aliquots of 1 μL of the compounds were added to the wells and pre-incubated with 20 μL hGal-3 per well for 30 minutes Then 20 μL B-ASF were added and incubated for another 1 hour. To detect the signal, 5 μL (final conc. of 1.0 nM) terbium labelled Anti-His antibody was added and incubated for 30 min followed by adding 5 μL (final conc. of 20 nM) Streptavidin d2 and incubation for another 1 hour. The assay signal was detected using HTRF screen protocol (Excitation wavelength=340 nm, emission wavelength=615 nm/665 nm) on Envision 2104 Multilabel Reader. Data analysed using Toolset and Curve Master. Results are reported in the experimental section (IC50 in μM).

Sequence of His-tagged recombinant human Gal-3 (hGal-3) (P17931 whole entry): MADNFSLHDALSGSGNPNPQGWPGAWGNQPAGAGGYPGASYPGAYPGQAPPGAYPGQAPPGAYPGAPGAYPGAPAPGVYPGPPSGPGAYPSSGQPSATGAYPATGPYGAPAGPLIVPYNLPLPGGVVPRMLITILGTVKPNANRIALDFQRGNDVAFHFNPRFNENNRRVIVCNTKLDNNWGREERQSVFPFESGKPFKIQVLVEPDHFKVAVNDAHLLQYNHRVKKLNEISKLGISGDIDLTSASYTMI

| Structure (SMILES) | IC50 |
| --- | --- |
| OC[C@H]1O[C@@H](c2n[nH]c(=S)n2-c2cc(Cl)ccc2C(F)(F)F)[C@H](O)[C@@H](n2cc(-c3ccc(Br)c(F)c3F)nn2)[C@H]1O (single isomer, unassigned) [Example 27] | 76 nM |
| OC[C@H]1O[C@@H](c2n[nH]c(=S)n2-c2cc(Cl)ccc2C(F)(F)F)[C@H](O)[C@@H](n2cc(-c3ccc(Br)c(F)c3F)nn2)[C@H]1O (single isomer, unassigned) [Example 28] | 6.9 nM |
| OC[C@H]1O[C@@H](c2nncn2-c2cc(Cl)ccc2C(F)(F)F)[C@H](O)[C@@H](n2cc(-c3ccc(Br)c(F)c3F)nn2)[C@H]1O [Example 26, (2S,3R,4R,5R,6R)-4-(4-(4-bromo-2,3-difluorophenyl)-1H-1,2,3-triazol-1-yl)-2-(4-(5-chloro-2-(trifluoromethyl)phenyl)-4H-1,2,4-triazol-3-yl)-6-(hydroxymethyl)tetrahydro-2H-pyran-3,5-diol] | 10 nM |
| OC[C@H]1O[C@@H](c2nncn2-c2cc(Cl)ccc2C(F)(F)F)[C@H](OCC(F)F)[C@@H](n2cc(-c3ccc(Br)c(F)c3F)nn2)[C@H]1O [Example 29, (2R,3R,4S,5R,6S)-4-(4-(4-bromo-2,3-difluorophenyl)-1H-1,2,3-triazol-1-yl)-6-(4-(5-chloro-2-(trifluoromethyl)phenyl)-4H-1,2,4-triazol-3-yl)-5-(2,2-difluoroethoxy)-2-(hydroxymethyl)tetrahydro-2H-pyran-3-ol] | 11 nM |

Same assay, conditions: table of Examples 5 to 25

| Structure (SMILES) | IC50 |
| --- | --- |
| Cc1nc([C@@H]2O[C@H](CO)[C@H](O)[C@H](n3cc(-c4ccc5ccccc5c4F)nn3)[C@H]2O)n(-c2cc(Cl)ccc2C(F)(F)F)n1 [Example 6] | 62 nM |
| Cc1nc([C@@H]2O[C@H](CO)[C@H](O)[C@H](n3cc(-c4ccc(Cl)c(Cl)c4F)nn3)[C@H]2O)n(-c2cc(Cl)ccc2C(F)(F)F)n1 [Example 7] | 6 nM |
| Cc1nc([C@@H]2O[C@H](CO)[C@H](O)[C@H](n3cc(-c4ccc(Br)c(F)c4F)nn3)[C@H]2O)n(-c2cc(Cl)ncc2C(F)(F)F)n1 [Example 9] | 12 nM |
| Cc1nc([C@@H]2O[C@H](CO)[C@H](O)[C@H](n3cc(-c4ccc(Br)c(F)c4F)nn3)[C@H]2O)n(-c2cc(Cl)ccc2OC(F)(F)F)n1 [Example 10] | 11 nM |
| Cc1nc([C@@H]2O[C@H](CO)[C@H](O)[C@H](n3cc(-c4ccc(Cl)c(F)c4Cl)nn3)[C@H]2O)n(-c2cc(Cl)ccc2C(F)(F)F)n1 [Example 11] | 14 nM |
| Cc1nc([C@@H]2O[C@H](CO)[C@H](O)[C@H](n3cc(-c4ccc(Br)cc4F)nn3)[C@H]2O)n(-c2cc(Cl)ccc2C(F)(F)F)n1 [Example 12] | 56 nM |
| Cc1nc([C@@H]2O[C@H](CO)[C@H](O)[C@H](n3cc(-c4ccc(C#N)c(F)c4F)nn3)[C@H]2O)n(-c2cc(Cl)ccc2C(F)(F)F)n1 [Example 13] | 19 nM |
| COc1c(Cl)ccc(-c2cn([C@H]3[C@@H](O)[C@@H](CO)O[C@@H](c4nc(C)nn4-c4cc(Cl)ccc4C(F)(F)F)[C@@H]3O)nn2)c1F [Example 14] | 137 nM |
| Cc1nc([C@@H]2O[C@H](CO)[C@H](O)[C@H](n3cc(-c4ccc(Br)c(Cl)c4F)nn3)[C@H]2O)n(-c2cc(Cl)ccc2C(F)(F)F)n1 [Example 15] | 96 nM |
| Cc1nc([C@@H]2O[C@H](CO)[C@H](O)[C@H](n3cc(-c4ccc(Br)c(F)c4C)nn3)[C@H]2O)n(-c2cc(Cl)ccc2C(F)(F)F)n1 [Example 16] | 74 nM |
| Cc1nc([C@@H]2O[C@H](CO)[C@H](O)[C@H](n3cc(-c4ccc(Cl)c(C)c4F)nn3)[C@H]2O)n(-c2cc(Cl)ccc2C(F)(F)F)n1 [Example 17] | 18 nM |
| COc1cc(-c2cn([C@H]3[C@@H](O)[C@@H](CO)O[C@@H](c4nc(C)nn4-c4cc(Cl)ccc4C(F)(F)F)[C@@H]3O)nn2)cc2ccccc12 [Example 18] | 1330 nM |
| COc1cc(-c2cn([C@H]3[C@@H](O)[C@@H](CO)O[C@@H](c4nc(C)nn4-c4cc(Cl)ccc4C(F)(F)F)[C@@H]3O)nn2)cc(F)c1Br [Example 19] | 23 nM |
| Cc1nc([C@@H]2O[C@H](CO)[C@H](O)[C@H](n3cc(-c4ccc(Cl)c(F)c4F)nn3)[C@H]2O)n(-c2ccc3ncsc3c2)n1 [Example 20] | 9 nM |
| CO[C@@H]1[C@@H](n2cc(-c3ccc(Cl)c(F)c3F)nn2)[C@@H](O)[C@@H](CO)O[C@H]1c1nc(C)nn1-c1ccc2ncsc2c1 [Example 21] | 10 nM |
| Cc1nc([C@@H]2O[C@H](CO)[C@H](O)[C@H](n3cc(-c4ccc(Cl)c(F)c4F)nn3)[C@H]2O)n(-c2cc(Cl)cnc2C(F)(F)F)n1 [Example 22] | 55 nM |
| Cc1nc([C@@H]2O[C@H](CO)[C@H](O)[C@H](n3cc(-c4ccc(Br)c(F)c4F)nn3)[C@H]2O)n(-c2cc(Cl)ccc2C2CC2)n1 [Example 23] | 20 nM |

Same assay, conditions: table of Examples 30 to 65

| Structure (SMILES) | IC50 |
| --- | --- |
| CO[C@@H]1[C@@H](n2cc(-c3ccc(Br)c(F)c3)nn2)[C@@H](O)[C@@H](CO)O[C@H]1c1ncnn1-c1cc(Cl)ccc1C(F)(F)F [Example 30] | 22 nM |
| CO[C@@H]1[C@@H](n2cc(-c3cc(F)c(Br)c(F)c3)nn2)[C@@H](O)[C@@H](CO)O[C@H]1c1ncnn1-c1cc(Cl)ccc1C(F)(F)F [Example 31] | 24 nM |
| OC[C@H]1O[C@@H](c2nncn2-c2cc(Cl)ccc2C(F)(F)F)[C@H](O)[C@@H](n2cc(-c3cc(F)c(Cl)c(Cl)c3)nn2)[C@H]1O [Example 34] | 20 nM |
| CO[C@@H]1[C@@H](n2cc(-c3ccc(Br)c(F)c3F)nn2)[C@@H](O)[C@@H](CO)O[C@H]1c1nncn1-c1cc(Cl)ccc1C(F)(F)F [Example 35] | 9.3 nM |
| CO[C@@H]1[C@@H](n2cc(-c3cc(F)c(Cl)c(Cl)c3)nn2)[C@@H](O)[C@@H](CO)O[C@H]1c1nncn1-c1cc(Cl)ccc1C(F)(F)F [Example 36] | 35 nM |
| OC[C@H]1O[C@@H](c2nncn2-c2cc(Cl)ccc2C(F)(F)F)[C@H](O)[C@@H](n2cc(-c3c(F)c(F)c(Br)c(F)c3F)nn2)[C@H]1O [Example 37] | 5.7 nM |
| OC[C@H]1O[C@@H](c2nncn2-c2cc(Cl)ccc2OC(F)(F)F)[C@H](O)[C@@H](n2cc(-c3ccc(Br)c(F)c3F)nn2)[C@H]1O [Example 38] | 11 nM |
| OC[C@H]1O[C@@H](c2nncn2-c2cc(Cl)ccc2OC(F)(F)F)[C@H](O)[C@@H](n2cc(-c3c(F)c(F)c(Br)c(F)c3F)nn2)[C@H]1O [Example 47] | 14 nM |
| CO[C@@H]1[C@@H](n2cc(-c3ccc(Br)c(F)c3F)nn2)[C@@H](O)[C@@H](CO)O[C@H]1c1nncn1-c1cc(Cl)ccc1OC(F)(F)F [Example 48] | 14 nM |
| OC[C@H]1O[C@@H](c2nncn2-c2cc(Cl)ccc2OC(F)(F)F)[C@H](O)[C@@H](n2cc(-c3ccc(Cl)c(F)c3F)nn2)[C@H]1O [Example 51] | 14 nM |
| OC[C@H]1O[C@@H](c2nncn2-c2cc(Cl)ccc2C(F)(F)F)[C@H](O)[C@@H](n2cc(-c3ccc(Cl)c(F)c3F)nn2)[C@H]1O [Example 52] | 9.7 nM |

Same assay, conditions: text of Examples 1 to 4; HTRF, 15 nM hGal-3, 15 nM B-ASF

| Structure (SMILES) | IC50 |
| --- | --- |
| Cc1nc([C@@H]2O[C@H](CO)[C@H](O)[C@H](n3cc(-c4ccc(Br)c(F)c4F)nn3)[C@H]2O)n(-c2ccc3ncsc3c2)n1 [Example 1, (2S,3R,4R,5R,6R)-2-(1-(Benzo[d]thiazol-6-yl)-3-methyl-1H-1,2,4-triazol-5-yl)-4-(4-(4-bromo-2,3-difluorophenyl)-1H-1,2,3-triazol-1-yl)-6-(hydroxymethyl)tetrahydro-2H-pyran-3,5-diol] | 7 nM |
| CO[C@@H]1[C@@H](n2cc(-c3ccc(Br)c(F)c3F)nn2)[C@@H](O)[C@@H](CO)O[C@H]1c1nc(C)nn1-c1ccc2ncsc2c1 [Example 2, (2R,3R,4S,5R,6S)-6-(1-(Benzo[d]thiazol-6-yl)-3-methyl-1H-1,2,4-triazol-5-yl)-4-(4-(4-bromo-2,3-difluorophenyl)-1H-1,2,3-triazol-1-yl)-2-(hydroxymethyl)-5-methoxytetrahydro-2H-pyran-3-ol] | 13 nM |
| COc1cc(-c2cn([C@H]3[C@@H](O)[C@@H](CO)O[C@@H](c4nc(C)nn4-c4cc(Cl)ccc4C(F)(F)F)[C@@H]3O)nn2)cc(F)c1Cl [Example 3, (2S,3R,4R,5R,6R)-2-(1-(5-Chloro-2-(trifluoromethyl)phenyl)-3-methyl-1H-1,2,4-triazol-5-yl)-4-(4-(4-chloro-3-fluoro-5-methoxyphenyl)-1H-1,2,3-triazol-1-yl)-6-(hydroxymethyl)tetrahydro-2H-pyran-3,5-diol] | 14 nM |
| CNC(=O)CO[C@@H]1[C@@H](n2cc(-c3cc(F)c(Cl)c(F)c3)nn2)[C@@H](O)[C@@H](CO)O[C@H]1c1nc(C)nn1-c1cc(Cl)ccc1C(F)(F)F [Example 4, 2-(((2S,3R,4S,5R,6R)-2-(1-(5-chloro-2-(trifluoromethyl)phenyl)-3-methyl-1H-1,2,4-triazol-5-yl)-4-(4-(4-chloro-3,5-difluorophenyl)-1H-1,2,3-triazol-1-yl)-5-hydroxy-6-(hydroxymethyl)tetrahydro-2H-pyran-3-yl)oxy)-N-methylacetamide] | 23 nM |

From patent US12275719B2, “Small molecule inhibitors of galectin-3” (BRISTOL-MYERS SQUIBB COMPANY, priority 2019, dated 2025)
